Data as given in US12448369B2 (Edgewise Therapeutics, Inc., priority 2023, dated 2025).

What was measured:
[1] = target: T1, Porcine ventricle myofibrils (ventricular myosin ATPase) (Sus scrofa, UniProt P79293); experiment: Myofibril ATPase assay, porcine ventricle myofibrils; assay type: biochemical, porcine (Yucatan minipigs)
T1 construct: Myofibrils from porcine cardiac muscle was isolated from the left ventricle of Yucatan minipigs; tissue Exemplar Genetics; host or cells: left ventricle of Yucatan minipigs, myofibrils prepared in house
T1 sequence (P79293 whole entry): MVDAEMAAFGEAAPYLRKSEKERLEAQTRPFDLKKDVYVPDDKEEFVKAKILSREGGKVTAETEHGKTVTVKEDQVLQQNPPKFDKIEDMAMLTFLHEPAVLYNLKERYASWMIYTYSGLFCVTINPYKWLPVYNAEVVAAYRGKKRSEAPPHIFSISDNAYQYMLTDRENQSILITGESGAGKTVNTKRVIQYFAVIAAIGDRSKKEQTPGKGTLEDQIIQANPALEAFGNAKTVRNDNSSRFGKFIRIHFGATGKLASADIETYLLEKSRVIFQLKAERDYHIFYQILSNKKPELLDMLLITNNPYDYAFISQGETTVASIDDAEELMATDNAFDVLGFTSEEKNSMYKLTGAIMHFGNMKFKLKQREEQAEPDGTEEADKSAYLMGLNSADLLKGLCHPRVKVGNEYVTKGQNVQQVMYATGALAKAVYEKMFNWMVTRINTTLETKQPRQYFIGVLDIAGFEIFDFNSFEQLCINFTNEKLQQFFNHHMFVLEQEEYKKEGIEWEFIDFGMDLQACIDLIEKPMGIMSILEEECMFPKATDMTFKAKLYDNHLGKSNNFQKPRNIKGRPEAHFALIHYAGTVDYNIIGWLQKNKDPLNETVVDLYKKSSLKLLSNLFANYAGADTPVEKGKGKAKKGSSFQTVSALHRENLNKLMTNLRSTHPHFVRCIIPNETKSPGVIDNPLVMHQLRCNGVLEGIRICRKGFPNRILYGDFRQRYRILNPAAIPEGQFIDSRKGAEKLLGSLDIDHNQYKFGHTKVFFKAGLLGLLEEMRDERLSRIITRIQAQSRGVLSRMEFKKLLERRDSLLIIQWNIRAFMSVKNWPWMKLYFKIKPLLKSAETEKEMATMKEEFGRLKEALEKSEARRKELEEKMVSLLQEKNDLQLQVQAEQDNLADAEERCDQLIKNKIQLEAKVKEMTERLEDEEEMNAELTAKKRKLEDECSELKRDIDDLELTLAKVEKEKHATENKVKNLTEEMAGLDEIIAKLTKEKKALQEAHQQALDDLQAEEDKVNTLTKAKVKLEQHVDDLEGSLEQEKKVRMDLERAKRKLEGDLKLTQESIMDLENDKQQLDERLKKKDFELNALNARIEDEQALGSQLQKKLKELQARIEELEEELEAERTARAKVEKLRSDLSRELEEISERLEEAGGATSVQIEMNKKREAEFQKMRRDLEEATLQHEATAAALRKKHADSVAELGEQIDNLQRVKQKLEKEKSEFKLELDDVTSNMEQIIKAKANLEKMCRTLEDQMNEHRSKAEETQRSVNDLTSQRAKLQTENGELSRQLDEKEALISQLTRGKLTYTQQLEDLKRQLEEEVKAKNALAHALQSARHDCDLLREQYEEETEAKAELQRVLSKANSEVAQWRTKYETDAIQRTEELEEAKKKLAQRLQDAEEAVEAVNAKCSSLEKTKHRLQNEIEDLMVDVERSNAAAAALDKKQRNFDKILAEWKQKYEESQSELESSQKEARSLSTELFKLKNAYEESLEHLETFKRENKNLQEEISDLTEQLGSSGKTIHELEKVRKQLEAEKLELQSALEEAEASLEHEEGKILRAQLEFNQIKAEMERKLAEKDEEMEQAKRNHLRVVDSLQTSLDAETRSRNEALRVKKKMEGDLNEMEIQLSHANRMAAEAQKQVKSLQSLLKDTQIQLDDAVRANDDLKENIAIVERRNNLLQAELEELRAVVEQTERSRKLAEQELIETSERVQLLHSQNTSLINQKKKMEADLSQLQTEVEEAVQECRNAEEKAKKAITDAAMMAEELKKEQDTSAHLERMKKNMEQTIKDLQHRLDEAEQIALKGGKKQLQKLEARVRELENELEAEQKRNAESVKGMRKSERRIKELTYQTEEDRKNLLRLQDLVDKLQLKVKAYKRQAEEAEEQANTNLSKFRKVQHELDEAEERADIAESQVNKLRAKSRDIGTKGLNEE
Outline: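 ATPase activity of porcine left-ventricular myofibrils is tracked as the slope of NADH loss at 340 nm through a PK/LDH couple. Values are the concentrations that bring activity to 75% (inhibitors) or 125% (activators) of vehicle.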

[2] = system: Porcine atria myofibrils (atrial myosin ATPase); experiment: Myofibril ATPase assay, porcine atria myofibrils; assay type: biochemical
Outline: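 Coupled PK-LDH reaction links ADP from myosin ATPase to NADH loss, read at 340 nm every 1.5-2 min for 75 min. Slopes (mAU/min) normalized to vehicle-only wells (100%) and fit to a 4-parameter logistic; Y75 is the concentration cutting activity by 25%, Y125 is reported for activators.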

[3] = system: Rabbit Psoas myofibrils (skeletal myosin ATPase); experiment: Myofibril ATPase assay, rabbit psoas (skeletal) myofibrils; assay type: biochemical
Outline: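 Rabbit psoas skeletal myofibrils in PIPES/CaCl2/EGTA pCa buffer, pH 7.0. ATPase rate followed by PK-LDH-coupled NADH loss at 340 nm, read every 1.5–2 min for 75 min. Slopes normalized to vehicle (100%) and fitted to a 4-parameter logistic; values are Y75 (25% inhibition) or Y125 (25% activation) concentrations.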

[4] = Y75 value (no ‡ mark), porcine ventricle myofibrils
[5] = Y75 value (no ‡ mark), porcine atria myofibrils
[6] = Y75 value (no ‡ mark), rabbit psoas myofibrils
[7] = porcine ventricle myofibrils, Y75 value
[8] = porcine atria myofibrils, Y75 value (75% activity relative to no compound)
[9] = rabbit psoas myofibrils, Y75 value
[10] = Y75 value: concentration required to reduce myosin ATP-ase activity by 25%, Porcine Ventricle Prep pCa 25 GEOM_MEAN
[11] = Y75 value: concentration required to reduce myosin ATP-ase activity by 25%, Porcine Atria Prep pCa 25 GEOM_MEAN
[12] = Y75 value: concentration required to reduce myosin ATP-ase activity by 25%, Rabbit Psoas Prep pCa 25 GEOM_MEAN
[13] = ‡ Y125 value, not a Y75 value (125% activity relative to no compound), rabbit psoas myofibrils

Compound	Ventricular EC25 [1, 4] [µM]	Atrial EC25 [2, 5] [µM]	Skeletal EC25 [3, 6] [µM]	Ventricular EC25 [1, 7] [µM]	Atrial EC25 [2, 8] [µM]	Skeletal EC25 [3, 9] [µM]	other results
Cc1c(CC(=O)N[C@H](C)c2ncc(C#N)cn2)c(=O)[nH]c2cccc(C#N)c12 (single isomer, unassigned) [compound 2069]	2.76	0.04	0.49				
Cc1nccc2[nH]c(=O)c(CC(=O)N[C@H](C)c3ncccc3F)c(C)c12 (single isomer, unassigned) [compound 267]				100.00	100.00	100.00	
Cc1c(CC(=O)N[C@@H](C)c2ccc(F)cc2F)c(=O)[nH]c2ccccc12 [compound 135]	0.40	0.10	0.03				
C[C@@H](NC(=O)Cc1cc2c(C(F)(F)F)c(F)ccc2[nH]c1=O)c1ncc(C#N)cn1 (single isomer, unassigned) [compound 2009]	100.00	100.00	2.25				
Cc1cc(F)ccc1[C@H](C)NC(=O)Cc1c(C)c2c(C)nccc2[nH]c1=O [compound 407]				0.33	0.10	0.02	
Cc1c(CC(=O)N[C@@H](CO)c2ccc(F)cc2F)c(=O)[nH]c2ccc(C#N)nc12 [compound 211]				53.99	7.02	22.09	
Cc1cc(C#N)cnc1[C@@H](C)NC(=O)Cc1c(O)c2c(C)c(F)ccc2[nH]c1=O [compound 1122]	38.45	9.16	6.95				
Cc1nccc2[nH]c(=O)c(CC(=O)N[C@@H](C)c3ncccc3F)c(C)c12 (single isomer, unassigned) [compound 268]				100.00	100.00	100.00	
C[C@H](NC(=O)Cc1cc2c(F)c(F)ccc2[nH]c1=O)c1cc(C#N)c(F)s1 (single isomer, unassigned) [compound 4003]							Ventricular EC25 [1, 10]: 100.00 µM; Atrial EC25 [2, 11]: 100.00 µM; Skeletal EC25 [3, 12]: 1.06 µM
C[C@H](NC(=O)Cc1cc2c(C#N)nccc2[nH]c1=O)c1ccc(F)cn1 [compound 475]				39.76	100.00	2.98	
Cc1c(C(F)(F)C(=O)N[C@H](C)c2ccc(F)cc2F)c(=O)[nH]c2ccc(F)cc12 [compound 4815]	100.00	1.05	1.04				
COc1ncc2[nH]c(=O)c(CC(=O)N[C@@H](C)c3ccc(F)cc3F)cc2n1 [compound 497]				100	73.3	100	
Cc1c(C(F)(F)C(=O)N[C@@H](C)c2nc(C#N)cs2)c(=O)[nH]c2ccc(F)cc12 (single isomer, unassigned) [Compound 4010]							Ventricular EC25 [1, 10]: 19.76 µM; Atrial EC25 [2, 11]: 0.74 µM; Skeletal EC25 [3, 12]: 2.38 µM
Cc1c([C@H](C)C(=O)N[C@@H](C)c2ccc(F)cc2F)c(=O)[nH]c2ccnc(Cl)c12 (single isomer, unassigned) [compound 366]				1.48	0.14	0.04	
Cc1c(C(F)(F)C(=O)N[C@@H](C)c2nccc(C#N)n2)c(=O)[nH]c2ccc(F)cc12 (single isomer, unassigned) [compound 2528]	100.00	4.45					Skeletal EC25 [3, 13]: 93.23‡ μM
Cc1cccc([C@@H](C)NC(=O)Cc2c(C)c3c(C)nccc3[nH]c2=O)c1 (single isomer, unassigned) [compound 339]				100.00	100.00	100.00	

Compound	Ventricular EC25 [1, 4] [µM]	Atrial EC25 [2, 5] [µM]	Skeletal EC25 [3, 6] [µM]	Ventricular EC25 [1, 7] [µM]	Atrial EC25 [2, 8] [µM]	Skeletal EC25 [3, 9] [µM]	other results
C[C@H](NC(=O)Cc1cc2c(F)c(F)ccc2[nH]c1=O)c1ncc(F)cc1F [compound 34]	0.05	0.02	0.02				
COc1ccc2[nH]c(=O)c(CC(=O)N[C@@H](C)c3ccc(F)cc3F)cc2c1C#N [Compound 81, (S)-2-(5-Cyano-6-methoxy-2-oxo-1,2-dihydroquinolin-3-yl)-N-(1-(2,4-difluorophenyl)ethyl) acetamide]	100.00	100.00	51.89				
Cc1nccc2[nH]c(=O)c(CC(=O)N[C@@H](CO)c3ccc(C#N)cc3F)c(C)c12 (single isomer, unassigned) [compound 243]				2.20	0.56	0.17	
C[C@H](NC(=O)C1(c2cc3cc(F)ccc3[nH]c2=O)CC1)c1cc(C#N)ccn1 (single isomer, unassigned) [compound 2537]		100.00					Ventricular EC25 ([1]; ‡ Y125 value, not a Y75 value (125% activity relative to no compound), porcine ventricle myofibrils): 100.00‡ μM; Skeletal EC25 [3, 13]: 100.00‡ μM
N#Cc1cnc2c(n1)CC[C@@H]2NC(=O)Cc1cc2cc(F)c(F)cc2[nH]c1=O [compound 1083]	100.00	5.80	4.15				
Cc1c(F)ccc2[nH]c(=O)c(C(F)(F)C(=O)N[C@H](C)c3ncc(C#N)cn3)c(C)c12 (single isomer, unassigned) [compound 4831]	0.39	0.12	0.06				
Cc1c(CC(=O)N[C@@H](CO)c2ncc(C#N)cc2F)c(=O)[nH]c2ccnc(C#N)c12 (single isomer, unassigned) [compound 246]				0.15	0.13	0.03	
Cc1nnccc1[C@H](C)NC(=O)Cc1c(C)c2cc(F)ccc2[nH]c1=O [compound 1091]	80.11	53.30	100.00				
Cc1cc([C@@H](C)NC(=O)Cc2cc3c(C#N)nccc3[nH]c2=O)ncc1F [compound 470]				100.00	100.00	9.89	
Cc1c(CC(=O)N[C@@H](C)c2ccc(F)cc2F)c(=O)[nH]c2ccc(Br)nc12 [compound 357]				0.31	0.06	0.06	
C[C@H](NC(=O)Cc1c(C(F)(F)F)c2c(C3CC3)nccc2[nH]c1=O)c1ncc(C#N)cn1 (single isomer, unassigned) [compound 3002]				100.00	100.00	100.00	
Cc1c(CC(=O)N[C@H](C)c2ccc(F)cc2F)c(=O)[nH]c2ccnc(C(F)(F)F)c12 [compound 270]				100.00	100.00	100.00	
C[C@@H](NC(=O)Cc1c(O)c2cc(F)c(F)cc2[nH]c1=O)c1ccc(C#N)cc1F [compound 1086]	100.00	1.94	100.00				
Cc1c(CC(=O)N[C@H](C)c2ncc(C#N)cn2)c(=O)[nH]c2cc(F)ccc12 [compound 1040]	12	6.01	52				
C[C@@H](NC(=O)C1(c2cc3c(F)c(F)ccc3[nH]c2=O)CC1)c1ccc(C#N)cn1 (single isomer, unassigned) [compound 4809]	31.20	3.07	1.34				
